Measured values reported in patent US6388108B1, “Aminosterol compounds and uses thereof” (Genaera Corporation, priority 1998, dated 2002).
Converted amounts (≈) assume the structure as drawn.

Assays:
Test in all cases: Minimum inhibitory concentration (MIC), microtiter broth incubation
Format in all cases: cell-based
Details in all cases: 0.5x trypticase soy broth, 37° C., 18-24 hours; lowest concentration with no growth
C. albicans = test system: C. albicans
Experimental: (§1) Aminosterol compounds (1)-(11) were assayed in vitro against several microbial organisms to evaluate their spectrum of activity. Minimum inhibitory concentrations (MIC) for the bacteria and yeast were determined by incubating 0.9-1.1e5 colony-forming units per milliliter of log-phase microbes in 0.5×trypticase soy broth with increasing concentrations of sample in ninety-six well microtiter plates (commercially available from Corning of Corning, N.Y.) at 37° C. for eighteen to twenty-four hours. The minimum inhibitory concentration (MIC) is the lowest concentration of sample at which no growth was observed. Control incubation in the absence of bacteria served as a baseline value. Initial sample concentrations were two milligrams per milliliter in 250 mM sodium acetate, pH 6.6.

E. coli = test system: E. coli
Experimental: as §1

P. aeruginosa = test system: P. aeruginosa
Experimental: as §1

S. aureus = test system: S. aureus
Experimental: as §1

CC(CSCC(N)C(=O)O)C(=O)CCC(C)C1CCC2C3C(O)CC4CC(NCCCNCCCCN)CCC4(C)C3CCC12C (stereo not drawn) [Aminosterol (1)]
MIC C. albicans (C. albicans): 128 µg/mL (≈ 192 µM) | MIC E. coli (E. coli): 256 µg/mL (≈ 385 µM) | MIC P. aeruginosa (P. aeruginosa): 256 µg/mL (≈ 385 µM) | MIC S. aureus (S. aureus): 8 to 16 µg/mL

CC(CCC(=O)C(C)(C)O)C1CCC2C3C(O)CC4CC(NCCCNCCCCN)CCC4(C)C3CCC12C (stereo not drawn) [Aminosterol (2)]
MIC E. coli (E. coli): 125 µg/mL (≈ 222 µM) | MIC P. aeruginosa (P. aeruginosa): >250 µg/mL | MIC S. aureus (S. aureus): 31 µg/mL (≈ 55.2 µM)

CC(CO)C(CCC(C)C1CCC2C3C(O)CC4CC(NCCCNCCCCN)CCC4(C)C3CCC12C)OS(=O)(=O)O (stereo not drawn) [Aminosterol (3)]
MIC E. coli (E. coli): >250 µg/mL | MIC P. aeruginosa (P. aeruginosa): >250 µg/mL | MIC S. aureus (S. aureus): 250 µg/mL (≈ 388 µM)

CC(COS(=O)(=O)O)C(O)CCC(C)C1CCC2C3C(O)CC4CC(NCCCNCCCCN)CCC4(C)C3CCC12C (stereo not drawn) [Aminosterol (4)]
MIC C. albicans (C. albicans): 16 µg/mL (≈ 24.8 µM) | MIC E. coli (E. coli): 128 µg/mL (≈ 199 µM) | MIC P. aeruginosa (P. aeruginosa): 32 µg/mL (≈ 49.7 µM) | MIC S. aureus (S. aureus): 4 to 8 µg/mL

CC(CO)C(O)CCC(C)C1CCC2C3C(O)CC4CC(NCCCNCCCCN)CCC4(C)C3CCC12C (stereo not drawn) [Aminosterol (5)]
MIC E. coli (E. coli): 125 µg/mL (≈ 222 µM) | MIC P. aeruginosa (P. aeruginosa): 250 µg/mL (≈ 443 µM) | MIC S. aureus (S. aureus): 63 µg/mL (≈ 112 µM)

CC(CO)C(=O)CCC(C)C1CCC2C3C(O)CC4CC(NCCCNCCCCN)CCC4(C)C3CCC12C (stereo not drawn) [Aminosterol (6)]
MIC E. coli (E. coli): 63 µg/mL (≈ 112 µM) | MIC P. aeruginosa (P. aeruginosa): >250 µg/mL | MIC S. aureus (S. aureus): 8 µg/mL (≈ 14.2 µM)

CC(C)C(CCC(C)C1CCC2C3C(O)CC4CC(NCCCNCCCCN)CCC4(C)C3CC(O)C12C)OS(=O)(=O)O (stereo not drawn) [Aminosterol (7)]
MIC C. albicans (C. albicans): 32 µg/mL (≈ 49.7 µM) | MIC E. coli (E. coli): 16 µg/mL (≈ 24.8 µM) | MIC P. aeruginosa (P. aeruginosa): 16 µg/mL (≈ 24.8 µM) | MIC S. aureus (S. aureus): 8 to 16 µg/mL

CC(CCCC(C)(C)O)C1CCC2C3C(O)CC4CC(NCCCNCCCCN)CCC4(C)C3CCC12C (stereo not drawn) [Aminosterol (8)]
MIC E. coli (E. coli): 8 µg/mL (≈ 14.6 µM) | MIC P. aeruginosa (P. aeruginosa): 32 µg/mL (≈ 58.4 µM) | MIC S. aureus (S. aureus): 1 µg/mL (≈ 1.83 µM)

CC(COS(=O)(=O)O)C(O)CCC(C)C1CCC2C3C(O)CC4CC(NCCCNCCCCNCCCN)CCC4(C)C3CCC12C (stereo not drawn) [Aminosterol (9)]
MIC E. coli (E. coli): 31 µg/mL (≈ 44.2 µM) | MIC P. aeruginosa (P. aeruginosa): 31 µg/mL (≈ 44.2 µM) | MIC S. aureus (S. aureus): 31 µg/mL (≈ 44.2 µM)

CC(C)C(CCC(C)C1CCC2C3C(=O)CC4CC(NCCCNCCCCN)CCC4(C)C3CCC12C)OS(=O)(=O)O (stereo not drawn) [Aminosterol (10)]
MIC E. coli (E. coli): 8 µg/mL (≈ 12.8 µM) | MIC P. aeruginosa (P. aeruginosa): 31 µg/mL (≈ 49.5 µM) | MIC S. aureus (S. aureus): 2 µg/mL (≈ 3.2 µM)

CC(C)C(CCC(C)C1CCC2C3CCC4CC(NCCCNCCCCN)CCC4(C)C3CCC12C)OS(=O)(=O)O (stereo not drawn) [Aminosterol (11)]
MIC E. coli (E. coli): 125 µg/mL (≈ 204 µM) | MIC P. aeruginosa (P. aeruginosa): 250 µg/mL (≈ 409 µM) | MIC S. aureus (S. aureus): 16 µg/mL (≈ 26.1 µM)
